Measurements taken from patent US20070173486A1, “Azetidinecarboxamide derivatives and their use in the treatment of cb1 receptor mediated disordrs” (VERNALIS RESEARCH LIMITED, priority 2003, published 2007).

What follows are molecules tested against T1, recombinant human CB1 receptors (Homo sapiens, UniProt P21554) (assay: Binding to CB1 Receptors). Settings: [3H]-SR-141716A 1 nM; membranes from HEK293 cells expressing recombinant hCB1; Ki calculated from IC50 (Cheng-Prusoff).
T1 construct: expressed in transfected cells; host or cells: HEK293
Experimental: The binding of compounds of Formula I to recombinant human CB1 receptors was determined in vitro by standard methods, with reference to the procedure described by Rinaldi-Carmona et al. (Rinaldi-Carmona, M., Pialot, F., Congy, C., Redon, E., Barth, F., Bachy, A., Breliere, J. C., Soubre, P., LeFur, G., Life Sci. 1996, 58(15), 1239-1247). Membranes were prepared from HEK293 cells expressing recombinant hCB1 receptors. Binding assays are performed in a total volume of 250 μL, containing [^3H]-SR-141716A (1 nM final concentration), membranes and test compound. Non-specific binding is determined using CP55,940 (10 μM). Serial dilutions are performed starting from test compounds as 10 mM solutions in DMSO. Compounds are tested over the concentration range 10^−10 M to 10^−5 M. Ki values are calculated from IC50 values using the Cheng-Prusoff equation.

T1 sequence (P21554 whole entry): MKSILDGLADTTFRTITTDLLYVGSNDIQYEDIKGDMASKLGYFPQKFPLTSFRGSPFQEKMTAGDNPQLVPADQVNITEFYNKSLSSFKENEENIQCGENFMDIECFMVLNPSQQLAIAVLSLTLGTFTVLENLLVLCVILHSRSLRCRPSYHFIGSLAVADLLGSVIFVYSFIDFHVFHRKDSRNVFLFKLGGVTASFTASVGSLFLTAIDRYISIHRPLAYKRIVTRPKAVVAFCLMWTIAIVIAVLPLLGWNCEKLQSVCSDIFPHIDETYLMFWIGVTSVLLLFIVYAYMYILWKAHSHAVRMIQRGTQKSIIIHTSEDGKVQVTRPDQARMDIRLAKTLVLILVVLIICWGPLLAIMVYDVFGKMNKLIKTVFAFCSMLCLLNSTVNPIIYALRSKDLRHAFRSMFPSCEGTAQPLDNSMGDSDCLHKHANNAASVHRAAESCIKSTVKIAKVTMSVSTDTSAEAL

Compound	Ki
CC(C)(C)NC(=O)N1CC(OC(c2ccc(Cl)cc2)c2cccnc2Cl)C1 (racemic) [Example 32, 3-[4-chloro-[…]-(2-chloropyridin-3-yl)benzyloxy]-N-(tert-butyl)azetidine-1-carboxamide]	27.7 nM
CC(C)(C)OC(=O)N1CCCN(C(=O)N2CC(OC(c3ccc(Cl)cc3)c3ccccc3Cl)C2)CC1 (stereo not drawn) [Example 1, 4-[3-(2,4′-dichlorobenzhydryloxy)azetidine-1-carbonyl]-[1,4]diazepine-1-carboxylic acid tert-butyl ester]	0.8 nM
CN(Cc1ccccc1)C(=O)N1CC(OC(c2ccc(Cl)cc2)c2ccccc2C(F)(F)F)C1 (stereo not drawn) [Example 4, 3-[2-(trifluoromethyl)-4′-chlorobenzhydryloxy]-N-methyl-N-benzyl-azetidine-1-carboxamide]	1.5 nM

Second part, the molecule after the results:

Ki	Compound
8.6 nM	CC(C)(C)NC(=O)N1CC(OC(c2ccc(Cl)cc2)c2cccnc2Cl)C1 (single isomer, unassigned) [Example 34, 3-[(S*)-4-chloro-[…]-(2-chloropyridin-3-yl)benzyloxy]-N-(tert-butyl)azetidine-1-carboxamide]
3.2 nM	CO[C@H](C(=O)N1CC(OC(c2ccc(Cl)cc2)c2ccc(Cl)cc2Cl)C1)c1ccccc1 (stereo partly drawn) [Example 11, 3-(2,4,4′-trichlorobenzhydryloxy)-1-[(S)-2-methoxy-2-phenylethanoyl]azetidine]
5.5 nM	CCCCS(=O)(=O)N1CC(OC(c2ccc(Cl)cc2)c2ccc(Cl)cc2Cl)C1 (stereo not drawn) [Example 20, 1-(n-butyl)sulfonyl-3-(2,4,4′-trichlorobenzhydryloxy)azetidine]
